Experimental data taken from patent US12517131B2, “Methods for labeling eukaryotic cells from a multicellular organism as well as for treating and/or diagnosing a cancer using modified monosaccharide compounds” (DIAMIDEX, priority 2019, dated 2026).

What was measured:
SK-BR-7 (vs HME-1) = assay: Labeling of cancer and non-cancer cells, fluorescence signal ratio; type: cell-based, human; conditions: SK-BR-7 (30 h) vs HME-1 (30 h); Ara-N3 10 mM; FBS 10%; one doubling time
Experimental: (§1) The fluorescence Assimilation of Ara-N3 probes was visualized by copper-free click chemistry using sulfo-DBCO-biotin (1 mM), followed by labeling with a mouse anti-biotin Alexa Fluor 488 antibody conjugate (0.62 mg/ml stock, Jackson ImmunoResearch, dilution 1/10). The click reaction was carry-out as following: At 24 h incubation times, the culture mediums were removed, and attached cells were washed twice with PBS. Cells were detached with Tryp-LE, washed twice with PBS, and centrifuged at 13000 g for 2 min. The cellular pellets were resuspended with 10 μL of sulfo-DBCO-biotin and incubated 30 min in the dark, and at 37 C°. Then, cells were washed twice with PBS, centrifuged, and cellular pellets were resuspended with 10 μL of a mouse anti-biotin antibody solution, before to be incubated at room temperature in dark. Thereafter, cells were washed twice with PBS and small cellular suspension spots (5 μL) were put in Polysine® adhesion slides (VWR international S.A.S), in the dark room, until dry (20 min). The spots were fixed with 4% paraformaldehyde during 20 min, in dark and room temperature. Slides were then washed twice with PBS, before recovering with square cover glasses (VWR international S.A.S) using glycerol Mounting Medium (Dako) and stored at 4° C. in dark room.
(§2) The fluorescence acquisition was recorded using Olympus Microscopy IX83 (Olympus Life Science) equipped with a 60×/1.3 […]/1.4 SRI (silicone refractive index) objective, and Hamamatsu oreca flash 4 LT camera with 109 nm/pixel calibrated pixel size. The excitation light was emitted by X-CITE 120LED using the AT180/30X excited filter and signal was monitored using AT535/40m emission filter. Green light exposition time was 600 ms and white light exposition time was determined by DIC methods at […]. The acquisition area size analyzed by the Celisens dimension V1.16 software was different depending on the cell number containing in the spot.
(§3) The images were processed using count and measure unit of the Cellsens dimension V1.16 software. The background noise was deleted as follows: ROI were first defined on the background of the image and the average pixel intensity was calculated. The value thus obtained was subtracted from all pixels of the image. The fluorescence intensity of each cell was determined from a threshold set at a value of 3030. All pixels that have intensity below 3030 were not counted.
(§4) The same experiments as in example 2 with other cancer and corresponding non cancer cells were performed. The culture media were adapted to the tested cells and supplemented by 10% fetal bovine serum (FBS). Ara-N3 probe (10 mM) was added to culture media with FBS concentration (10%). The incubation times corresponded to one doubling time or twice doubling time of the tested cells (see table below).
(§5) The fluorescence signal cancer/non cancer ratios were calculated based on fluorescence intensities obtained with Ara-N3 tested on cancer and corresponding non cancer cells.

[1] = system: HT29 (vs Colon epithelial cell); assay: as above; type: cell-based, human; conditions: HT29 (doubling time 40 h) vs Colon epithelial cell (40 h); Ara-N3 10 mM; FBS 10%; test at 2 doubling time
Experimental: as §1, §2, §3, §4, §5

HL-60 (vs Lymphocytes T) = assay: as above; type: cell-based, human; conditions: HL-60 (28 h) vs Lymphocytes T (24 h); Ara-N3 10 mM; FBS 10%; one doubling time
Experimental: as §1, §2, §3, §4, §5

MDA MB175 (vs HME-1) = assay: as above; type: cell-based, human; conditions: MDA MB175 (30 h) vs HME-1 (30 h); Ara-N3 10 mM; FBS 10%; one doubling time
Experimental: as §1, §2, §3, §4, §5

[2] = system: A549 (vs Bronchial epithelial cell); assay: as above; type: cell-based, human; conditions: A549 (doubling time 40 h) vs Bronchial epithelial cell (40 h); Ara-N3 10 mM; FBS 10%; test at 2 doubling time
Experimental: as §1, §2, §3, §4, §5

[3] = system: SU-DHL-4 (vs Isolated primary B cells); assay: as above; type: cell-based, human; conditions: SU-DHL-4 (40 h) vs Isolated primary B cells; Ara-N3 10 mM; FBS 10%
Experimental: as §1, §2, §3, §4, §5

[4] = system: BL-2 (vs Isolated primary B cells); assay: as above; type: cell-based, human; conditions: BL-2 (24 h) vs Isolated primary B cells; Ara-N3 10 mM; FBS 10%
Experimental: as §1, §2, §3, §4, §5

K562 (vs Lymphocytes T) = assay: as above; type: cell-based, human; conditions: K562 (24 h) vs Lymphocytes T (24 h); Ara-N3 10 mM; FBS 10%; one doubling time
Experimental: as §1, §2, §3, §4, §5

[5] = system: OCI-Ly10 (vs Isolated primary B cells); assay: as above; type: cell-based, human; conditions: OCI-Ly10 (24 h) vs Isolated primary B cells; Ara-N3 10 mM; FBS 10%
Experimental: as §1, §2, §3, §4, §5

A431 (vs Hacat) = assay: as above; type: cell-based, human; conditions: A431 (30 h) vs Hacat (30 h); Ara-N3 10 mM; FBS 10%; one doubling time
Experimental: as §1, §2, §3, §4, §5

[6] = system: MDA MB453 (tumoral cell lines); assay: In vitro cytotoxicity of Ara-N3 probe (Annexin V/IP, MTS); type: cell-based
Experimental: (§6) The cell lines (as detailed below in the table) were provided by Inserm/Aquiderm transfer cell. Cell culture of cell lines and cell cytoxicity tests were also carried out by Aquiderm transfer cell, in the laboratory of INSERM U1035.
(§7) All the cells were seeded in culture plates, either in 96 wells at the density of 1*10^4 cells/well for the MTS proliferation test, either in 24 wells at the density of 5*10^4 cells/well for the Annexin V test/IP test. Then the cells were incubated at 37° C. and 5% CO2 for 24 hours. After 24 hours, the culture medium was changed in all the wells and the cells adhered to the bottom of the wells were rinsed twice in PBS (Eurobio) or centrifuged and washed twice in PBS for the cells in suspension, before being exposed to the Ara-N3 probe at different concentrations: 1, 10, 50 and 100 mM. The cells were incubated at 37° C. and 5% CO2 for 48 hours.
(§8) This test requires the use of an Annexin V-APC kit (Biolegend) for the detection of apoptosis/necrosis. This test uses the ability of Annexin V to bind to membrane phosphatidylserines (PS) and the intercalating properties of propidium iodide (PI) on DNA.
(§9) Briefly, after incubation of the cells with the Ara-N3 probe at different concentrations and at different times (24 h and 48 h), the cells were recovered, trypsinized (for adherent cells) and washed in PBS. After counting in trypan blue on the Malassez cell, the cells were incubated in a labeling buffer (100 μL) in the presence of Annexin V-APC (5 μL) and of IP (10 μL) for 15 minutes at room temperature and in the dark. They were then directly analyzed by cytometry after adding 100 μL of labeling buffer.
(§10) The non-toxic concentrations of Ara-N3 with respect to the tested cells are gathered in the following Table 5.

[7] = system: HME1 (immortalized cell lines); assay: as above; type: cell-based
Experimental: as §6, §7, §8, §9, §10

## [N-]=[N+]=NC[C@H]1OC(O)[C@@H](O)[C@@H]1O (stereo partly drawn) [Ara-N3, 5-azido-5-deoxy-D-arabinofuranose]
SK-BR-7 (vs HME-1)
  Cancer/Non Cancer Ratio (fluorescence signal): 2.1
[1]
  Cancer/Non Cancer Ratio (fluorescence signal): 13.2
HL-60 (vs Lymphocytes T)
  Cancer/Non Cancer Ratio (fluorescence signal): 1.6
MDA MB175 (vs HME-1)
  Cancer/Non Cancer Ratio (fluorescence signal): 2
[2]
  Cancer/Non Cancer Ratio (fluorescence signal): 7.7
[3]
  Cancer/Non Cancer Ratio (fluorescence signal): 2.5
[4]
  Cancer/Non Cancer Ratio (fluorescence signal): 2.5
K562 (vs Lymphocytes T)
  Cancer/Non Cancer Ratio (fluorescence signal): 1.6
[5]
  Cancer/Non Cancer Ratio (fluorescence signal): 2.1
A431 (vs Hacat)
  Cancer/Non Cancer Ratio (fluorescence signal): 17.5
[6]
  Non-toxic concentration of Ara-N3: >1 mM
[7]
  Non-toxic concentration of Ara-N3: >1 mM
